In brackets after ≈: the same amount, converted by molar mass. Read-outs that look alike come from different tables or passages of the source.
Tests used:
[1] = tested on: Veillonella spp. clinical isolates; experiment: MIC distribution against clinical isolates; type: cell-based
Excerpt: (n=19 V. parvula, n=9 Veillonella spp., n=1 Veillonella dispr., n=1 V. atypica) clinical isolates (μg/mL).
As used herein, “minimum inhibitory concentration” or “MIC” refers to the lowest concentration of an antimicrobial agent, for example, an antimicrobial agent as described herein, required to inhibit the growth of an organism. […] “MIC90” represents the MIC value at which ≥90% of the strains within a test population are inhibited; the 90th percentile.
Many susceptibility testing methods are known in the art and can be used as described herein (see, e.g., Jorgensen and Ferraro (2009) Clinical Infectious Diseases 49:1749-1755; and Maurer et al. (2017) Infectious Disease Reports 9:6839; the entire contents of each of the foregoing are incorporated herein by reference). For example, antimicrobial susceptibility can be determined using conventional culture based methods such as the broth or agar dilution test. In these dilution tests, the bacterial isolate of interest is inoculated onto different media that include serial dilutions of an antimicrobial agent, and incubated under appropriate conditions (e.g., overnight at 37° C.) to allow for growth to occur. Following the incubation period, the media is examined to determine bacterial growth. The lowest concentration of antibiotic that prevents growth represents the minimal inhibitory concentration (MIC). Broth dilution tests can be miniaturized and mechanized allowing for reproducibility and high throughput.

[2] = tested on: Clostridium spp.; experiment: Agar dilution MIC, 10 clinical isolates; type: cell-based; settings: for Mode: modal MIC
[3] = tested on: Bacteroides spp. spontaneous mutants; experiment: Broth microdilution MIC of spontaneous mutants; type: cell-based
Protocol: Select isolates were subcultured onto agar containing drug at the selection concentration, were identified by MALDI, and were frozen for broth microdilution MIC testing as described below.
To determine whether colonies growing on drug selection plates had elevated MIC values to the selecting antibiotic, susceptibility testing by broth microdilution was conducted on isolated mutants following methodology recommended by CLSI (1), (2), and (3) “Performance Standards for Antimicrobial Susceptibility Testing; Twenty-Eighth Informational Supplement.,” CLSI document M100-S28, 2018.
All wells in columns 2 through 12 of a standard 96-well microdilution plate (Costar 3795) were filled with 150 μL of the appropriate diluent. Then, 300 μL of the test agents were added to the wells of column 1 of the plates at […] the highest final concentration to be tested. Serial two-fold dilutions were made across the rows through column 11 using the Biomek 2000. The wells of column 12 contained no drug and served as the growth control wells. This plate served as the “mother plate” from which selected MIC assay plates or “daughter plates” were made.
Daughter plates for anaerobic organisms were transferred to a Bactron II anaerobic chamber (Sheldon Manufacturing Inc., Cornelius, Oreg.) to reduce for 1 hour prior to inoculation. The inoculum for each organism was prepared in the anaerobic chamber and dispensed into sterile disposable reservoirs. Inoculation was completed using a multichannel pipette to transfer 10 μL of the inoculum into each well of the daughter plate. This yielded a final cell concentration in the daughter plates of approximately 1×10^6 CFU/mL.

[4] = tested on: E. coli ATCC 35218 (TEM-1 β-lactamase producer); experiment: Broth microdilution MIC (time-kill study); type: cell-based, Escherichia coli
[5] = tested on: E. coli (ATCC 25922, ATCC 35218, MMX 1312); experiment: Agar dilution MIC (spontaneous mutation study; strain in conditions); type: cell-based, Escherichia coli; settings: Escherichia coli
[6] = MIC 1 μg/mL, 30 Veillonella spp. isolates
[7] = MIC 2 μg/mL, 30 Veillonella spp. isolates
[8] = MIC 4 μg/mL, 30 Veillonella spp. isolates
[9] = MIC >32 μg/mL, 30 Veillonella spp. isolates
[10] = 10 Clostridium spp. clinical isolates
[11] = MIC 0.5 μg/mL, 30 Veillonella spp. isolates
[12] = MIC 8 μg/mL, 30 Veillonella spp. isolates
[13] = MIC 16 μg/mL, 30 Veillonella spp. isolates
[14] = MIC 32 μg/mL, 30 Veillonella spp. isolates

Cc1ncc([N+](=O)[O-])n1CCO [MTZ]
Cumulative percentage of isolates inhibited at MIC [1, 6]: 3.3%
Number of test isolates at MIC [1, 6]: 1
Cumulative percentage of isolates inhibited at MIC [1, 7]: 33.3%
Number of test isolates at MIC [1, 7]: 9
Cumulative percentage of isolates inhibited at MIC [1, 8]: 83.3%
Number of test isolates at MIC [1, 8]: 15
Cumulative percentage of isolates inhibited at MIC [1, 9]: 100.0%
Number of test isolates at MIC [1, 9]: 5
% S [2, 10]: 100%
MIC50 [2, 10]: 1 µg/mL (≈ 5.84 µM)
MIC90 [2, 10]: 1 µg/mL (≈ 5.84 µM)
MIC range [2, 10]: 0.12 to 2 µg/mL
Mode [2, 10]: 1 µg/mL
MIC ([3]; B. fragilis ATCC 25285, selected on rifaximin 4X MIC, Colony A): 0.25 µg/mL
MIC ([3]; B. fragilis ATCC 25285, selected on rifaximin 4X MIC, Colony B): 0.5 µg/mL
MIC ([3]; B. fragilis ATCC 25285, selected on rifaximin 8X MIC, Colony A): 0.5 µg/mL
MIC ([3]; B. fragilis ATCC 25285, selected on rifaximin 8X MIC, Colony B): 0.25 µg/mL
MIC ([3]; B. fragilis ATCC 25285 Parent): 0.25 µg/mL
MIC ([3]; B. ovatus MMX 3503, selected on rifaximin 4X MIC, Colony A): 2 µg/mL
MIC ([3]; B. ovatus MMX 3503, selected on rifaximin 4X MIC, Colony B): 0.5 µg/mL
MIC ([3]; B. ovatus MMX 3503, selected on rifaximin 8X MIC, Colony A): 1 µg/mL
MIC ([3]; B. ovatus MMX 3503, selected on rifaximin 8X MIC, Colony B): 2 µg/mL
MIC ([3]; B. ovatus MMX 3503 Parent): 0.5 µg/mL
MIC ([3]; B. vulgatus ATCC 8482, selected on ceftriaxone 4X MIC, Colony A): 1 µg/mL
MIC ([3]; B. vulgatus ATCC 8482, selected on ceftriaxone 4X MIC, Colony B): 1 µg/mL
MIC ([3]; B. vulgatus ATCC 8482, selected on rifaximin 4X MIC, Colony A): 1 µg/mL
MIC ([3]; B. vulgatus ATCC 8482, selected on rifaximin 4X MIC, Colony B): 1 µg/mL
MIC ([3]; B. vulgatus ATCC 8482, selected on rifaximin 8X MIC, Colony A): 1 µg/mL
MIC ([3]; B. vulgatus ATCC 8482, selected on rifaximin 8X MIC, Colony B): 1 µg/mL
MIC ([3]; B. vulgatus ATCC 8482 Parent (Table 50)): 1 µg/mL
MIC ([3]; B. vulgatus ATCC 8482 Parent (Table 54)): 1 µg/mL

CO/N=C(\C(=O)N[C@@H]1C(=O)N2C(C(=O)O)=C(CSc3nc(=O)c(=O)[nH]n3C)CS[C@H]12)c1csc(N)n1 [ceftriaxone]
Cumulative percentage of isolates inhibited at MIC [1]: 100.0%
Number of test isolates at MIC [1]: 1
Cumulative percentage of isolates inhibited at MIC [1, 11]: 10.0%
Number of test isolates at MIC [1, 11]: 3
Cumulative percentage of isolates inhibited at MIC [1, 6]: 23.3%
Number of test isolates at MIC [1, 6]: 4
Cumulative percentage of isolates inhibited at MIC [1, 7]: 26.7%
Number of test isolates at MIC [1, 7]: 1
Cumulative percentage of isolates inhibited at MIC [1, 8]: 30.0%
Number of test isolates at MIC [1, 8]: 1
Cumulative percentage of isolates inhibited at MIC [1, 12]: 40.0%
Number of test isolates at MIC [1, 12]: 3
Cumulative percentage of isolates inhibited at MIC [1, 13]: 86.7%
Number of test isolates at MIC [1, 13]: 14
Cumulative percentage of isolates inhibited at MIC [1, 14]: 96.7%
Number of test isolates at MIC [1, 14]: 3
isolates susceptible [2]: all the isolates were susceptible
% S [2, 10]: 100%
MIC50 [2, 10]: 8 µg/mL (≈ 14.4 µM)
MIC90 [2, 10]: 16 µg/mL (≈ 28.9 µM)
MIC range [2, 10]: 0.5 to 16 µg/mL
MIC50 ([2]; Clostridium): 8 µg/mL (≈ 14.4 µM)
MIC90 ([2]; Clostridium): 16 µg/mL (≈ 28.9 µM)
Mode [2, 10]: 16 µg/mL
MIC ([4]; E. coli ATCC 35218): 0.03 µg/mL (≈ 0.0541 µM)
MIC ([4]; Escherichia coli, ATCC35218): 0.03 µg/mL (≈ 0.0541 µM)
MIC ([5]; read-out: Agar MIC, E. coli ATCC 25922): 0.06 µg/mL (≈ 0.108 µM)
MIC ([5]; read-out: Agar MIC, E. coli ATCC 35218): 0.03 µg/mL (≈ 0.0541 µM)
MIC ([5]; read-out: Agar MIC, E. coli MMX 1312): 4 µg/mL (≈ 7.21 µM)
MIC ([5]; read-out: MIC value (agar dilution), E. coli MMX 1312): 4 µg/mL (≈ 7.21 µM)
MIC ([5]; read-out: MIC values (agar dilution), E. coli excluding E. coli MMX 1312 (stated jointly with Streptococcus spp.)): 0.03 to 0.06 µg/mL (≈ 0.0541 to 0.108 µM)
MIC ([3]; B. fragilis ATCC 25285, selected on rifaximin 4X MIC, Colony A, read-out: MIC): 16 µg/mL
MIC ([3]; B. fragilis ATCC 25285, selected on rifaximin 4X MIC, Colony B, read-out: MIC): 32 µg/mL
MIC ([3]; B. fragilis ATCC 25285, selected on rifaximin 8X MIC, Colony A, read-out: MIC): 32 µg/mL
MIC ([3]; B. fragilis ATCC 25285, selected on rifaximin 8X MIC, Colony B, read-out: MIC): 32 µg/mL
MIC ([3]; B. fragilis ATCC 25285 Parent, read-out: MIC): 32 µg/mL
MIC ([3]; B. ovatus MMX 3503, selected on rifaximin 4X MIC, Colony A, read-out: MIC): 128 µg/mL
MIC ([3]; B. ovatus MMX 3503, selected on rifaximin 4X MIC, Colony B, read-out: MIC): 64 µg/mL
MIC ([3]; B. ovatus MMX 3503, selected on rifaximin 8X MIC, Colony A, read-out: MIC): > 128 µg/mL
MIC ([3]; B. ovatus MMX 3503, selected on rifaximin 8X MIC, Colony B, read-out: MIC): 64 µg/mL
MIC ([3]; B. ovatus MMX 3503 Parent, read-out: MIC): 128 µg/mL
broth microdilution MIC higher than parent ([3]; B. vulgatus ATCC 8482, one of two isolates selected at 4× the MIC): 4 fold
MIC ([3]; B. vulgatus ATCC 8482, selected on ceftriaxone 4X MIC, Colony A, read-out: MIC): 2 µg/mL
MIC ([3]; B. vulgatus ATCC 8482, selected on ceftriaxone 4X MIC, Colony B, read-out: MIC): 4 µg/mL
MIC ([3]; B. vulgatus ATCC 8482, selected on rifaximin 4X MIC, Colony A, read-out: MIC): 2 µg/mL
MIC ([3]; B. vulgatus ATCC 8482, selected on rifaximin 4X MIC, Colony B, read-out: MIC): 1 µg/mL
MIC ([3]; B. vulgatus ATCC 8482, selected on rifaximin 8X MIC, Colony A, read-out: MIC): 2 µg/mL
MIC ([3]; B. vulgatus ATCC 8482, selected on rifaximin 8X MIC, Colony B, read-out: MIC): 2 µg/mL
MIC ([3]; B. vulgatus ATCC 8482 Parent (Table 50), read-out: MIC): 1 µg/mL
MIC ([3]; B. vulgatus ATCC 8482 Parent (Table 54), read-out: MIC): 1 µg/mL
